According to ChEMBL document CHEMBL1201862, “PubChem BioAssay data set” (2004):
Activity calls are given as the source filed them.

Columns and labels:
[1] = A cytotoxicity screen of small molecule inhibitors of the PhoP region in Salmonella typhi identified in the primary screen. [Related pubchem assays: 1850, 1864, 1985 ]; format: functional
[2] = target: DNA dC->dU-editing enzyme APOBEC-3G (Homo sapiens, UniProt Q9HC16); experiment: Dose Response confirmation of small molecule APOBEC3G DNA Deaminase Inhibitors via a fluorescence-based single-stranded DNA deaminase assay. [Related pubchem assays (depositor defined):AID493012, AID493028]; format: functional
DNA dC->dU-editing enzyme APOBEC-3G, sequence (Q9HC16 whole entry): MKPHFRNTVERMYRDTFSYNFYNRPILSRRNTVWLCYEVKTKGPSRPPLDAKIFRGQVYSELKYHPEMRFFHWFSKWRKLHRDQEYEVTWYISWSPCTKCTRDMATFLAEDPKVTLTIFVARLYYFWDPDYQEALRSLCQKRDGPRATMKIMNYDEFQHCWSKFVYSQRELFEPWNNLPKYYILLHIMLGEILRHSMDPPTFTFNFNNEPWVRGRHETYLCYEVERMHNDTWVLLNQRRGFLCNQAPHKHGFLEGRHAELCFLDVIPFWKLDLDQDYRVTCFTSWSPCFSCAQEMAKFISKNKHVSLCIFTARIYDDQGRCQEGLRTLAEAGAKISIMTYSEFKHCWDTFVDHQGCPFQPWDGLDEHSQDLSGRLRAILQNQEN

[3] = Luminescence Cell-Based Dose Response HTS to Identify Inhibitors of 5'UTR Stem-Loop Driven Prion Protein mRNA Translation in H4 Neuroglioblastoma Cells. [Related pubchem assays: 1827 (Project Summary), 1813 (Primary HTS)]; format: functional
Protein RecA = target: T1, Protein RecA (Mycobacterium tuberculosis, UniProt P9WHJ3); experiment: Fluorescence Cell-Free Homogeneous Dose Retest to Identify Inhibitors of RecA-Intein Splicing Activity. [Related pubchem assays (depositor defined):AID2097, AID2223, AID489010, AID492950]; format: functional
T1 sequence (P9WHJ3 whole entry): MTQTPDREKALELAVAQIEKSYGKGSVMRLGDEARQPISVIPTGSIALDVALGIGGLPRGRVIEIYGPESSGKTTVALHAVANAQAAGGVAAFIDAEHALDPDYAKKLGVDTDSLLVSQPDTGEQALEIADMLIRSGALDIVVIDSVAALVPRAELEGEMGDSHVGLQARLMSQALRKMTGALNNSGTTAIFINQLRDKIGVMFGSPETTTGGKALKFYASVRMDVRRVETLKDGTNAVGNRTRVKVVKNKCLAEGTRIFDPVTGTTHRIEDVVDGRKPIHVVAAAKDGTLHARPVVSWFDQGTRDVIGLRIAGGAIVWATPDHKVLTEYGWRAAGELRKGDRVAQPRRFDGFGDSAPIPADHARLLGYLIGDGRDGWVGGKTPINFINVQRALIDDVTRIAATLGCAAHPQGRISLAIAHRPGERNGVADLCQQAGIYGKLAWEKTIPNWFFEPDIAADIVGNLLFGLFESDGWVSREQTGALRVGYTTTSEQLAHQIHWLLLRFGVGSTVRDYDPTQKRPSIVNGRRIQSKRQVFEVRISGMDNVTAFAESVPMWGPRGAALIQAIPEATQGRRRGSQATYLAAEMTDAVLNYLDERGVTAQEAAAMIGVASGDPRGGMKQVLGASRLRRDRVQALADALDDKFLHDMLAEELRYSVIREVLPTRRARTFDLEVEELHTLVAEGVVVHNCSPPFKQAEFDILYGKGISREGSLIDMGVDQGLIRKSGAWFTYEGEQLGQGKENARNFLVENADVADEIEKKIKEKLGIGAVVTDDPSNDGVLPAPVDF

[4] = inhibitors of firefly luciferase expression or activity, dose response, H4 neuroglioma cells, luminescence (AID 1990); format: functional, cell-based
[5] = inhibitors of SNCA 5'UTR-driven reporter translation, confirmation, H4 neuroglioma cells, luminescence (AID 1988); format: functional, cell-based
Aminopeptidase N = target: T2, Aminopeptidase N (Plasmodium falciparum FcB1/Columbia, UniProt O96935); experiment: P. falciparum M1AAP inhibitors, biochemical, fluorogenic H-Leu-NHMec substrate, 1536-well (AID 1445); parameters: species or system Plasmodium falciparum 3D7, 3D7
T2 sequence (O96935 whole entry): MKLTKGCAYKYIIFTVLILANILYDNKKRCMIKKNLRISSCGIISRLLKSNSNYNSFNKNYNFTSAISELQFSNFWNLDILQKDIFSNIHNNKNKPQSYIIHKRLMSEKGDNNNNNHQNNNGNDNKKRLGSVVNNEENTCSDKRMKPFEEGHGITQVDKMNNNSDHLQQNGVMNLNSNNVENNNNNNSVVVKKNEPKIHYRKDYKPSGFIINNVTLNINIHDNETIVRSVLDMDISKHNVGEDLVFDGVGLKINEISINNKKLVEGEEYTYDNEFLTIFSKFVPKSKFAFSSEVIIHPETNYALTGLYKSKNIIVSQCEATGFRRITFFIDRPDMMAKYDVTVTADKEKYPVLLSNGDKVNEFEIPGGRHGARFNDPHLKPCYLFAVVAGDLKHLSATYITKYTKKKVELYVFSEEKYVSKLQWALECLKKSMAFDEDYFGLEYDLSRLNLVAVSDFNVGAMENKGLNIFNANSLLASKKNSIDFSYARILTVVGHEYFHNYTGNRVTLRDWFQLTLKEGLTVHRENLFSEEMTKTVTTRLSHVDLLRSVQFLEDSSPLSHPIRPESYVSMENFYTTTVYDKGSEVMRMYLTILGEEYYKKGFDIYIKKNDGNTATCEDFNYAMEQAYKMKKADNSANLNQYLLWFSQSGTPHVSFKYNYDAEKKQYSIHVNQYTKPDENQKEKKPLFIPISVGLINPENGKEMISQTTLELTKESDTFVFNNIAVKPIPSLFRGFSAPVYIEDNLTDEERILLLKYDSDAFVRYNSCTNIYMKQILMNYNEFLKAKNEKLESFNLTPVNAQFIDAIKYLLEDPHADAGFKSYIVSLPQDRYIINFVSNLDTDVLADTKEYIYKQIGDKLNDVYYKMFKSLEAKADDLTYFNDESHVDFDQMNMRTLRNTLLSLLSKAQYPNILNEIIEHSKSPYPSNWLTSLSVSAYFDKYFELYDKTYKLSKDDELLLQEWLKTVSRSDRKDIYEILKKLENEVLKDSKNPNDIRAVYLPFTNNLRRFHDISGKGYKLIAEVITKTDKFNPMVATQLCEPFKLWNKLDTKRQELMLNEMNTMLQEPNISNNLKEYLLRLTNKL

[6] = target: T3, Replicative DNA helicase DnaB (Mycobacterium tuberculosis, UniProt P9WMR3); experiment: DnaB intein splicing inhibitors, dose response, biochemical, cell-free fluorescence (AID 449749); format: functional
T3 sequence (P9WMR3 whole entry): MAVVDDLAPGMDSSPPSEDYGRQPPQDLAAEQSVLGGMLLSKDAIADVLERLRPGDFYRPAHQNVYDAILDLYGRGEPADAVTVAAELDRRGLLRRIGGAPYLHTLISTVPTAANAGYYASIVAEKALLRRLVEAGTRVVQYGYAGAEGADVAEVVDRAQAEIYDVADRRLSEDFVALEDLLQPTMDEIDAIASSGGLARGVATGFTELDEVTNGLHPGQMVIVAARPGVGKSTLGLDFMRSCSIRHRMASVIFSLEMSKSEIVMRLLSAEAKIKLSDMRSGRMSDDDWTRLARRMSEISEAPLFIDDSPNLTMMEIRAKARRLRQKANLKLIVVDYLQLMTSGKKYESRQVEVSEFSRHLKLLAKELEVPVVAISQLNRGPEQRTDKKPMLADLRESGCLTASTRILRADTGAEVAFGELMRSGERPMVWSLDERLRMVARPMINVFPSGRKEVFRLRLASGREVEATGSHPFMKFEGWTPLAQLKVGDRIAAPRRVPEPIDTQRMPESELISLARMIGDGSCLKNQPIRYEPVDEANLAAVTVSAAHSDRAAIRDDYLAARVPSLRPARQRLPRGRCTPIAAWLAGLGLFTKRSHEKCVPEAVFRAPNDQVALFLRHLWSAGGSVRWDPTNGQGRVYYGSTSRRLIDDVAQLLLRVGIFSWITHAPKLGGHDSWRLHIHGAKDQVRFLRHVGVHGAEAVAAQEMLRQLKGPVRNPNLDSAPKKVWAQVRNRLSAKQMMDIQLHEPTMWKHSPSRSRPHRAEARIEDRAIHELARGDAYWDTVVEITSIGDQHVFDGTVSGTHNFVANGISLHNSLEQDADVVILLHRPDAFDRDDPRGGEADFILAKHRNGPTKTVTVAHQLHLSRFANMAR

Mucolipin-3 = target: T4, Mucolipin-3 (Homo sapiens, UniProt Q8TDD5); experiment: Dose response cell-based high-throughput screening assay for agonists of the transient receptor potential channel ML3 (TRPML3). [Related pubchem assays: 1526, 1424, 1448 ]; format: functional
T4 sequence (Q8TDD5 whole entry): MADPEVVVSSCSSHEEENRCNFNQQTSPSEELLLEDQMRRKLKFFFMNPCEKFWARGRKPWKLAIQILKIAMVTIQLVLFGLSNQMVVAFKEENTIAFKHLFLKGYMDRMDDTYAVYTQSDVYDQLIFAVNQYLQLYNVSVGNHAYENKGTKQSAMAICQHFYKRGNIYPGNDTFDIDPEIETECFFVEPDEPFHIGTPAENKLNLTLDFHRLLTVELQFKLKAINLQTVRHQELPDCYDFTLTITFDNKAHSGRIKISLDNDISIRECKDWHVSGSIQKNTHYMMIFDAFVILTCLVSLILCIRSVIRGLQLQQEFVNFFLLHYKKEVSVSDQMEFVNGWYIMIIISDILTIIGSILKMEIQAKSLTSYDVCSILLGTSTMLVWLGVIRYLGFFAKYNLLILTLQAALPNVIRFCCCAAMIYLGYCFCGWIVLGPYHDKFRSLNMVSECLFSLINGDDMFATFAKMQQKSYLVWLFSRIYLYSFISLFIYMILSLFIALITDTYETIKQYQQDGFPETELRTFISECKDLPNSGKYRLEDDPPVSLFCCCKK

[7] = target: T5, Calpain-2 catalytic subunit (Sus scrofa, UniProt P43367); experiment: pig calpain II inhibitor potency, dose response, biochemical, fluorogenic peptide substrate (AID 1420); format: functional
T5 sequence (P43367 whole entry): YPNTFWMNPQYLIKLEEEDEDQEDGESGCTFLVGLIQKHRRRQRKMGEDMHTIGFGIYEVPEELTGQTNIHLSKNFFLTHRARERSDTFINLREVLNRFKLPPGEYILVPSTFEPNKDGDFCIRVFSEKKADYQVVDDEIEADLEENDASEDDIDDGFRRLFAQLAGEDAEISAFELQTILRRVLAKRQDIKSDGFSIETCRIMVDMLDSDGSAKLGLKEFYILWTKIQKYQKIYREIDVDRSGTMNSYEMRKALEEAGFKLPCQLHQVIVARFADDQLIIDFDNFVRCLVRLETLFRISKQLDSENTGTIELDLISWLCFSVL

Ion channel NompC = Ion channel NompC (Danio rerio, UniProt Q7T1G6); experiment: Fluorescence counterscreen assay for TRPML3 agonists: dose response cell-based high-throughput screening assay to identify agonists of the transient receptor potential channel N1 (TRPN1). [Related pubchem assays: 1526, 1424, 1448 ]; format: functional
Ion channel NompC, sequence (Q7T1G6 whole entry): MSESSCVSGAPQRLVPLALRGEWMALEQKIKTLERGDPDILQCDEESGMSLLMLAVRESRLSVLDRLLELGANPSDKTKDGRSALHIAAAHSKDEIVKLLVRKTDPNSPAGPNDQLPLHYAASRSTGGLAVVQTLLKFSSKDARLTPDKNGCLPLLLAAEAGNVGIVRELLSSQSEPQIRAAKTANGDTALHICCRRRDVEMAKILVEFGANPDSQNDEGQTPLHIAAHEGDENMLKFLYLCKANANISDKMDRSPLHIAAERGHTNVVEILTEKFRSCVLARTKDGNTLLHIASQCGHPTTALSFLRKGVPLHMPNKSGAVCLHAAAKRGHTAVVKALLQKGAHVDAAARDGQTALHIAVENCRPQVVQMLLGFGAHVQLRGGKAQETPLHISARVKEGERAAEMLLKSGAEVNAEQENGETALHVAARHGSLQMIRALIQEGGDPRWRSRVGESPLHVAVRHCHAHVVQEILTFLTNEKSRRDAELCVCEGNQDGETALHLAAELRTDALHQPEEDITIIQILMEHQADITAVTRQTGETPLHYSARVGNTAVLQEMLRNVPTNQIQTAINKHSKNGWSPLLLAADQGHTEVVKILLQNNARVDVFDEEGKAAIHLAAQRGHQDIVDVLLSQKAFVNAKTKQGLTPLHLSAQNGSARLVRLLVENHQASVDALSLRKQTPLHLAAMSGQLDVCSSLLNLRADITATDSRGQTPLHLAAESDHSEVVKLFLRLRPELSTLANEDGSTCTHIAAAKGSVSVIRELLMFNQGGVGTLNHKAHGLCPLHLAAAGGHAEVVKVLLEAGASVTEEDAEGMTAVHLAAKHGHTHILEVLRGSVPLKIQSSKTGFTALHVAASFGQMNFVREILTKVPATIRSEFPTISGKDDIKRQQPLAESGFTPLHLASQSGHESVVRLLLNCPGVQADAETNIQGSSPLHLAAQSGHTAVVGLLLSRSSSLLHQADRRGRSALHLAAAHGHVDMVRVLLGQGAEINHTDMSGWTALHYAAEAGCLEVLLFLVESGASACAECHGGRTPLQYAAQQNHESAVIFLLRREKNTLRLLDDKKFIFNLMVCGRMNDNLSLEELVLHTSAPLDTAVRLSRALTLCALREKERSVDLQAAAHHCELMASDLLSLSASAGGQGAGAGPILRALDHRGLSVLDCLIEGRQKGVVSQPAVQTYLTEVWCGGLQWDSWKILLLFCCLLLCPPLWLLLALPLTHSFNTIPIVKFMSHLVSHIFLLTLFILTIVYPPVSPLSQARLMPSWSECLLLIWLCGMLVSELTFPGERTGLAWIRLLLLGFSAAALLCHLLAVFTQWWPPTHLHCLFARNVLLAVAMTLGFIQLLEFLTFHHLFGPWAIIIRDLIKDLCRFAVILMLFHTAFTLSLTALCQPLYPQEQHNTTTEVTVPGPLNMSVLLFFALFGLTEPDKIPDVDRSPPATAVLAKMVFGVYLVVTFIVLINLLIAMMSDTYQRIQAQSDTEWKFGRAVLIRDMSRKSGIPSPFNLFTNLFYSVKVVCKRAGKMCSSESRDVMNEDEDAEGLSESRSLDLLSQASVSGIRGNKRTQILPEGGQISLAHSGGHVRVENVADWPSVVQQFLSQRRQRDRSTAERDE

Cytochrome P450 2D6 = Cytochrome P450 2D6 (Homo sapiens, UniProt P10635); experiment: qHTS Assay for Inhibitors and Substrates of Cytochrome P450 2D6. [Related pubchem assays: 410 ]; format: ADME; conditions: read-out: Potency
Cytochrome P450 2D6, sequence (P10635 whole entry): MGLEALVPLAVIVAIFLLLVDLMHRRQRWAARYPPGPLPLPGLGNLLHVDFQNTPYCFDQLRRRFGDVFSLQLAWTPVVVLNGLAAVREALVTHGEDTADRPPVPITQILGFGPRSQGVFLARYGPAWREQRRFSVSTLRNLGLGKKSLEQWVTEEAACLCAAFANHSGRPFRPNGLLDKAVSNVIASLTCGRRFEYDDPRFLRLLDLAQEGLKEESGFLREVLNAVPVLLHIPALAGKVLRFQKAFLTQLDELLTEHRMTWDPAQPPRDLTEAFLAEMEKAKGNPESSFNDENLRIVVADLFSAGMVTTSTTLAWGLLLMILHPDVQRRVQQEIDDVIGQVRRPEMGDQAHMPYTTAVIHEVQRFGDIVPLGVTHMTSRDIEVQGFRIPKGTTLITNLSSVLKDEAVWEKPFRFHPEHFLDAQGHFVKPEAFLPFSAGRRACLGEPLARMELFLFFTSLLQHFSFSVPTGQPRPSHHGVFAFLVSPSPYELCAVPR

Cytochrome P450 3A4 = Cytochrome P450 3A4 (Homo sapiens, UniProt P08684); conditions: Potency;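 note: confirmatory qHTS run detecting inhibitors and substrates of CYP3A4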
Cytochrome P450 3A4, sequence (P08684 whole entry): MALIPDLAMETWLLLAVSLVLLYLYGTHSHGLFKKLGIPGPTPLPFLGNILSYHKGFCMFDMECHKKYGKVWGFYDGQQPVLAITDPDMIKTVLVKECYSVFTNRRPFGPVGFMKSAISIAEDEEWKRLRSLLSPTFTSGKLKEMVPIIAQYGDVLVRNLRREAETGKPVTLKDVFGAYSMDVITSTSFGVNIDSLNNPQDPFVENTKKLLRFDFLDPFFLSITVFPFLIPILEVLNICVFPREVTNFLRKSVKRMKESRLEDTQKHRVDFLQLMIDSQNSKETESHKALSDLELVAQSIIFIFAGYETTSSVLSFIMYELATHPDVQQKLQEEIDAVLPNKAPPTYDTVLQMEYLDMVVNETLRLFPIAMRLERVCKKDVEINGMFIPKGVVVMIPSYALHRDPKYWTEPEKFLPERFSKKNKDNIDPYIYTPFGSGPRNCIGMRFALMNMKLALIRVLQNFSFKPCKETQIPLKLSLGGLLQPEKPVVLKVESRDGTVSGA

Hexokinase HKDC1 = target: T6, Hexokinase HKDC1 (Homo sapiens, UniProt Q2TB90); experiment: HKDC1 hexokinase inhibitors, dose response, biochemical, W721R variant (AID 504729); format: functional
T6 sequence (Q2TB90 whole entry): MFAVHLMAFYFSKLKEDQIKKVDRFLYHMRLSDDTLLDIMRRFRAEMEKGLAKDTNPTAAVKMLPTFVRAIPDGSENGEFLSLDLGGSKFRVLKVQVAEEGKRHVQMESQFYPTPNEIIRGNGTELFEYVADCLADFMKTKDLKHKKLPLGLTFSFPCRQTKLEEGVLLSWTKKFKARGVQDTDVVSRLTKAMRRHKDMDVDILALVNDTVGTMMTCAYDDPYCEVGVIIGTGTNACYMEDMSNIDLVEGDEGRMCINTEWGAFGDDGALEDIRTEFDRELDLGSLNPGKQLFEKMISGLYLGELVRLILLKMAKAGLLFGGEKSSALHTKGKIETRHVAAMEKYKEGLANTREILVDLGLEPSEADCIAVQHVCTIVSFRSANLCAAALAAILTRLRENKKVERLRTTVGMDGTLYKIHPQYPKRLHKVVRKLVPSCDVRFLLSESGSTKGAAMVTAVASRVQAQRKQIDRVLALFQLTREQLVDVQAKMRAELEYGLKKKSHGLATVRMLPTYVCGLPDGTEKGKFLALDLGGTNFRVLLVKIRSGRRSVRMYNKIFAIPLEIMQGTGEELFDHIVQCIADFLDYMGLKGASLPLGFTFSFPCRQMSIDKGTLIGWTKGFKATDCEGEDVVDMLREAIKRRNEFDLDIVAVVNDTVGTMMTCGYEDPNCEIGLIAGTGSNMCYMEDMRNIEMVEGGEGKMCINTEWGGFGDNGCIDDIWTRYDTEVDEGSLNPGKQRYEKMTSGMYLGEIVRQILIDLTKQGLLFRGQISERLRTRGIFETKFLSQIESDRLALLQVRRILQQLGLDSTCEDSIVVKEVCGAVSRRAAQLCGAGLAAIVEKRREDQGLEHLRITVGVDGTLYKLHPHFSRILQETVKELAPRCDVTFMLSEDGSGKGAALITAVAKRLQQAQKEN

Large T antigen = Large T antigen (Simian virus 40, UniProt P03070); format: functional, Betapolyomavirus macacae;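 note: Confirmatory-stage PubChem screen for compounds that inhibit SV40 T antigen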
Large T antigen, sequence (P03070 whole entry): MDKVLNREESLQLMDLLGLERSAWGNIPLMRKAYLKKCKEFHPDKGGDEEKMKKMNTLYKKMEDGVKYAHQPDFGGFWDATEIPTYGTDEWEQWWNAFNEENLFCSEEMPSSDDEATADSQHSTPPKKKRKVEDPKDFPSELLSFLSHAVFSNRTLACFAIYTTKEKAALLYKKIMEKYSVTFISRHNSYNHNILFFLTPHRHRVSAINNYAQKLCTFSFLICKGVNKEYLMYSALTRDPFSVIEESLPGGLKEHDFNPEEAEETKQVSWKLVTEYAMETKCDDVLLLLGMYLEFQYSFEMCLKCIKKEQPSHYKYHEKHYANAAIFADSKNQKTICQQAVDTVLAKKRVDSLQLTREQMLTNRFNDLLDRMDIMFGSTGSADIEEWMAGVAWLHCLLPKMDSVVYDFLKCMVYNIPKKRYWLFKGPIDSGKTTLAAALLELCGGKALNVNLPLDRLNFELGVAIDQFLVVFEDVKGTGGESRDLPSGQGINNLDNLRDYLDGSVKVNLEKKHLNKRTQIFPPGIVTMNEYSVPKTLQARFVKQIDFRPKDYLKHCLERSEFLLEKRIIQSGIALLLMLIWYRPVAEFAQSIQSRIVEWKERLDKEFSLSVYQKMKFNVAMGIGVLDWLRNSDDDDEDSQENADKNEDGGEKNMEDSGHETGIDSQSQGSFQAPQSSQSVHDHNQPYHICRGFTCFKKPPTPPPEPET

Cc1cccc(OCCSc2nnc(-c3ccoc3C)n2C)c1
EC50 [1]: > 50 µM (active)

CCn1c(N)c(C(=O)NCC2CCCO2)sc1=S (stereo not given)
IC50 [2]: 66.6 µM (active)

CCOc1cc(/C=C(/C#N)C(=O)Nc2ccc(O)cc2)cc(Br)c1O
EC50 [3]: 9.51 µM (active) | EC50 (Protein RecA): 3.28 µM (active) | EC50 [4]: 9.71 µM (inconclusive) | EC50 [5]: 7.65 µM (active) | IC50 (Aminopeptidase N): 78.7 µM (active) | AC50 [6]: > 380 µM (inactive)

O=C1c2n[nH]c(-c3ccccc3O)c2C(c2ccc(F)cc2)N1CC1CCCO1 (stereo not given)
EC50 [1]: > 50 µM (active)

COc1ccc2c(c1)C(C)CC(C)(C)N2C(=O)CSc1nc2ccccc2s1 (stereo not given)
EC50 (Mucolipin-3): 2.63 µM (active) | IC50 [7]: 3.08 µM (not active) | EC50 (Ion channel NompC): > 29.9 µM (not active)

OCC1OC(c2ccc3c(c2)OCO3)C=CC1Oc1ccc(C2CCCC2)cc1 (stereo not given)
AC50 (Cytochrome P450 2D6): 3.16 µM (inconclusive) | AC50 (Cytochrome P450 3A4): 2 µM (inconclusive)

COc1ccc(OC)c(C(c2c(O)oc3ccccc3c2=O)c2c(C)n(C)n(-c3ccccc3)c2=O)c1 (stereo not given)
IC50 (Aminopeptidase N): 71 µM (active)

CC(C)c1nc2oc3c(O)ncnc3c2c2c1COC(C)(C)C2
IC50 (Hexokinase HKDC1): 8.22 µM (active)

COc1ncnc2c1oc1nc(C(C)C)c3c(c12)CC(C)(C)OC3
IC50 (Hexokinase HKDC1): 11.7 µM (active)

COc1ccccc1C(=O)Nc1nnc(-c2ccc(Cl)cc2)o1
EC50 [1]: > 50 µM (active)

COc1cc(/C=C2\SC(=S)N(C(C(=O)O)c3ccccc3)C2=O)ccc1O (stereo not given)
IC50 (Aminopeptidase N): 38.1 µM (active) | IC50 (Large T antigen): 11.6 µM (active)
